Values quoted from earlier work, collected in PMC2887613 (ChemMedChem, 2009).
pEC50: −log10 of the molar value. Like-named read-outs stand apart in the source and are kept apart here.

Tests used:
[1] = lead compound
[2] = biological target: T1, rat M4 (Rattus norvegicus, UniProt P08485)
T1 sequence (P08485 1-478): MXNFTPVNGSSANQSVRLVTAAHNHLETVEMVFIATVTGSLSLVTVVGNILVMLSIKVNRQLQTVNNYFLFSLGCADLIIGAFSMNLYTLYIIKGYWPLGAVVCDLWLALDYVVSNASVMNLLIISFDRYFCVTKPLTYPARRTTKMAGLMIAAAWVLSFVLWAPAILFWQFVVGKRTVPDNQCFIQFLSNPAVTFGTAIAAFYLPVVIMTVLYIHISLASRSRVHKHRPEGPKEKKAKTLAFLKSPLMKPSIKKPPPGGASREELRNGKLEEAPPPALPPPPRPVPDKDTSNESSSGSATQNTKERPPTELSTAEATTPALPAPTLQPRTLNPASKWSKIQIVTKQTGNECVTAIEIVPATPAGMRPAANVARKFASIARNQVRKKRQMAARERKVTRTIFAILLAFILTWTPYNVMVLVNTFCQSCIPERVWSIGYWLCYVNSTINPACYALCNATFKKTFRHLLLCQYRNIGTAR

[3] = biological target: T1, rat M4; settings: rat M4/Gqi5-expressing cells, first generation compounds
[4] = rat, microsomes, 1.5 h
[5] = human, microsomes, 1.5 h

Row | solubility [1] | leftward shift of an ACh CRC ([2]; Ca2+ mobilization assay in rat M4/Gqi5-expressing cells) | ACh CRC fold-shift ([2]; first generation compounds, previously reported) | pEC50 [3] | brain penetration | parent remaining [4] | parent remaining [5] | brain penetration (in vivo) | SMILES
1 | solubility issues | 47 fold | 47 x | 6.40 | lack of brain penetration | – | – | – | Cc1cc(C)c2c(N)c(C(=O)NCc3ccc(Cl)cc3)sc2n1 [Compd 1]
2 | – | – | – | – | – | < 10% | < 10% | centrally penetrating | COc1ccc(CNC(=O)c2sc3nc(C)cc(C)c3c2N)cc1 [Compd 3]
